For 36 compounds, IC50 results are on record in patent US20230391739A1, “ARYL DERIVATIVES FOR TREATING TRPM3 MEDIATED DISORDERS” (Katholieke Universiteit Leuven, priority 2020, published 2023).

T1 sequence (J9SQF3 1-1709 isoform J9SQF3-12): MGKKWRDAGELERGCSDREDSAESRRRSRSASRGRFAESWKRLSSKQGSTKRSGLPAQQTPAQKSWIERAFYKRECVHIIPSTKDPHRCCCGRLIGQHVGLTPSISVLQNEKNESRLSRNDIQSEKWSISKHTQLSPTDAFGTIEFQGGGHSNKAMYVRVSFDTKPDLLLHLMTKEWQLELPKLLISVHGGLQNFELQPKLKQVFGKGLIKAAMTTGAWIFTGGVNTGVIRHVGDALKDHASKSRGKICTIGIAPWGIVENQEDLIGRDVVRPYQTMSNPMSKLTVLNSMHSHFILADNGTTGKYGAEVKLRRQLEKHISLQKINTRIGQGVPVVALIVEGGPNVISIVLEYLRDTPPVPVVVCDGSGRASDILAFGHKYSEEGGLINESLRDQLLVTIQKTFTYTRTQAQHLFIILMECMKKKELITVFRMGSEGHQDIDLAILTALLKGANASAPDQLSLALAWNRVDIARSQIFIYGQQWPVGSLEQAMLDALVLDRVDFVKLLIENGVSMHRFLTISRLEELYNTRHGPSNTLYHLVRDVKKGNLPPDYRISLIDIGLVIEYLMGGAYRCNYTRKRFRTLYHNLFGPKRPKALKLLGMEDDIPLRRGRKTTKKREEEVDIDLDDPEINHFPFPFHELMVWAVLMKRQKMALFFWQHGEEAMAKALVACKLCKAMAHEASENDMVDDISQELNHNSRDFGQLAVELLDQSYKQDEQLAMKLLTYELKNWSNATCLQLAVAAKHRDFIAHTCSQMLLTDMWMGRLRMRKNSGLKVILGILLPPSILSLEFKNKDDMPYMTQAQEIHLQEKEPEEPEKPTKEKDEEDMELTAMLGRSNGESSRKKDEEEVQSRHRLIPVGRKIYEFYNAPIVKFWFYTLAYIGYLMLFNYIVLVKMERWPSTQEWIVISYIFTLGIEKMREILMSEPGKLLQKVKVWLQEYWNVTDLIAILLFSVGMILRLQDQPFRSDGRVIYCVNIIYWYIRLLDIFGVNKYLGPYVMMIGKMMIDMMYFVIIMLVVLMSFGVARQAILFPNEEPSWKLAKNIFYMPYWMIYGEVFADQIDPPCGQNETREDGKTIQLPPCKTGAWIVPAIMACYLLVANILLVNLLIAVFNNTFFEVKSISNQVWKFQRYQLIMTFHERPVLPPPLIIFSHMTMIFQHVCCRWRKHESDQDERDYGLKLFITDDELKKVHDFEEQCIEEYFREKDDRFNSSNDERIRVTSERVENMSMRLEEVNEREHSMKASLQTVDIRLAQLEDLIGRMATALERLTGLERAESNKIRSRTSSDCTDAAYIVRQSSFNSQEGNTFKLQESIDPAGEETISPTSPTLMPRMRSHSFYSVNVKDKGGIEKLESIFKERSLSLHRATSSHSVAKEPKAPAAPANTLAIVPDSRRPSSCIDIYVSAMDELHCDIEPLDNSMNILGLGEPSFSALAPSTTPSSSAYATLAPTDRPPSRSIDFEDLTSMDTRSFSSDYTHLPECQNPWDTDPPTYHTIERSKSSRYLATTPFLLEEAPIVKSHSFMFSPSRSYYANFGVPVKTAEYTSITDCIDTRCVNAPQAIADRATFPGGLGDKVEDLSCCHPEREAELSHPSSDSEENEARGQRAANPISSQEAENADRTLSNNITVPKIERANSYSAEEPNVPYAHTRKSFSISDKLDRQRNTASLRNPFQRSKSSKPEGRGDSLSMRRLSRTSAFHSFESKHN

The experiment has as its target T1, mouse TRPM3α2 (mTRPM3) ion channel (Mus musculus, UniProt J9SQF3).
T1 construct: expressed in transfected cells; host or cells: flip-in HEK293
Briefly: TRPM3 ion channel driven Ca2+ uptake, Fluo-4 AM assay, PS-stimulated (mTRPM3). Type of experiment: cell-based. To be noted: TRPM3 overexpressing flip-in HEK293 cells stimulated with Pregnenolone sulfate (PS) 50 μM, activity ranges A, B, C. The method, then:
Monitoring the TRPM3 Ion Channel Driven Ca^2+ Uptake.
In order to monitor the inhibition of the mouse TRPM3α2 (mTRPM3) ion channel by the compounds of the invention, a cellular system making use of an mTRPM3alpha2 or hTRPM3 overexpressing cell line (flip-in HEK293) was used. The TRPM3 channel was stimulated/opened with Pregnenolone sulfate (PS) (50 μM) which results in Ca^2+ influx.
For mTRPM3, the intracellular Ca^2+ was measured with a Calcium responsive dye, Fluor-4 AM ester (Invitrogen). Cells were cultured until a confluence of 80-90%, washed with Versene (Invitrogen) and detached from the surface by a short incubation with 0.05% Trypsin (Invitrogen). The trypsination process was stopped by the addition of complete cell culture medium (DMEM, glutamax, 10% FCS, NEAA, Pen-Strep). Cells were collected and resuspended in Krebs buffer without Calcium at RT.
Prior the cell seeding (±2000 cells/well into a black, 384 well plate (Greiner)) the diluted compound was added in the assay plate, together with the PS dissolved in Krebs buffer containing Calcium. […] Directly after cell addition the plates were read on an Envision fluorescence reader (Perkin Elmer) by an Excitation of 485 nm and emission at 535 nm.
Channel inhibition was calculated compared to a non-PS stimulated control versus a condition stimulated with PS (50 μM) with vehicle. The ability of the compounds of the invention to inhibit this activity was determined as: Percentage inhibition=[1−((RFU determined for sample with test compound present−RFU determined for sample with positive control inhibitor) divided by (RFU determined in the presence of vehicle−RFU determined for sample with positive control inhibitor))]*100.
The activities of the Example compounds tested are depicted in the table below.
A word on the IC50: it is the concentration needed to halve the response being measured. A high value points to lower potency. As for `Cc1oc2ccc(OCc3ccccc3C#N)cc2c1C(=O)O` [Cpd 010, 5-((2-cyanobenzyl)oxy)-2-methylbenzofuran-3-carboxylic acid], the IC50 was in the range of 1 to 20 µM. The compound `Cc1oc2ccc(OCc3ccccc3F)cc2c1C(=O)NC1(CO)CCC1` [Cpd 324, 5-((2-fluorobenzyl)oxy)-N-(1-(hydroxymethyl)cyclobutyl)-2-methylbenzofuran-3-carboxamide] gave an IC50 of less than 1 µM. In the case of `Cc1oc2ccc(OCc3ccccc3S(C)(=O)=O)cc2c1C(=O)NC1CCN(C)CC1` [Cpd 242, 2-methyl-N-(1-methylpiperidin-4-yl)-5-((2-(methylsulfonyl)benzyl)oxy)benzofuran-3-carboxamide] it was more than 20 µM. In the case of `Cc1oc2ccc(OC(CCN(C)C)c3ccccc3)cc2c1C(=O)NC1CCNC1=O` (stereo not drawn) [Cpd 224, 5-(3-(dimethylamino)-1-phenylpropoxy)-2-methyl-N-(2-oxopyrrolidin-3-yl)benzofuran-3-carboxamide] it was more than 20 µM. For `Cc1oc2ccc(OCc3ccccc3)cc2c1C(=O)N[C@@H]1CCNC1` [Cpd 048, (R)-5-(benzyloxy)-2-methyl-N-(pyrrolidin-3-yl)benzofuran-3-carboxamide] the value was less than 1 µM; for `Cc1oc2ccc(OCc3ccccc3F)cc2c1C(=O)NC(C)(C)CO` [Cpd 313, 5-((2-fluorobenzyl)oxy)-N-(1-hydroxy-2-methylpropan-2-yl)-2-methylbenzofuran-3-carboxamide], less than 1 µM; for `Cc1oc2ccc(OCc3ccccc3Cl)cc2c1C(=O)N[C@@H](CO)C(N)=O` [Cpd 338, (S)—N-(1-Amino-3-hydroxy-1-oxopropan-2-yl)-5-((2-chlorobenzyl)oxy)-2-methylbenzofuran-3-carboxamide], less than 1 µM. For the compound `Cc1oc2ccc(OCc3ccccc3)cc2c1C(=O)NC1CCCNCC1` (stereo not drawn) [Cpd 119, N-(azepan-4-yl)-5-(benzyloxy)-2-methylbenzofuran-3-carboxamide], the IC50 was less than 1 µM. In the case of `Cc1oc2ccc(OCc3ccccc3)cc2c1C(=O)NC1(C(=O)O)CCOCC1` [Cpd 193, 4-(5-(benzyloxy)-2-methylbenzofuran-3-carboxamido)tetrahydro-2H-pyran-4-carboxylic acid] it was 1 to 20 µM; in that of `Cc1oc2ccc(OCc3ccccc3)cc2c1C(=O)N[C@H]1CC[C@H](O)CC1` [Cpd 124, 5-(benzyloxy)-N-(trans-4-hydroxycyclohexyl)-2-methylbenzofuran-3-carboxamide], less than 1 µM; in that of `Cc1oc2ccc(OCc3ccccc3)cc2c1C(=O)NC1CCC(C)CC1` (stereo not drawn) [Cpd 106, 5-(benzyloxy)-2-methyl-N-(4-methylcyclohexyl)benzofuran-3-carboxamide], more than 20 µM. For `Cc1oc2ccc(OCc3ccccc3)cc2c1C(=O)NC1CN(C(=O)OC(C)(C)C)C1` [Cpd 228, tert-butyl 3-(5-(benzyloxy)-2-methylbenzofuran-3-carboxamido)azetidine-1-carboxylate] the value was 1 to 20 µM. For `Cc1oc2ccc(OCc3ccccc3)cc2c1C(=O)NC1CN2CCC1CC2` (stereo not drawn) [Cpd 142, 5-(benzyloxy)-2-methyl-N-(quinuclidin-3-yl)benzofuran-3-carboxamide] the value was less than 1 µM; for `Cc1oc2ccc(OC(CO)c3ccccc3F)cc2c1C(=O)N[C@@H](CO)C(N)=O` (single isomer, unassigned) [Cpd 335-Dia 1], less than 1 µM; for `Cc1oc2ccc(OC(C)c3ccccc3)cc2c1C(=O)NC1(C(N)=O)CCC1` (single isomer, unassigned) [Cpd 343-En 1, N-(1-carbamoylcyclobutyl)-2-methyl-5-(1-phenylethoxy)benzofuran-3-carboxamide], less than 1 µM. Compound `Cc1oc2ccc(OCc3ccccc3)cc2c1C(=O)NCC1CCNC1` (stereo not drawn) [Cpd 077, 5-(benzyloxy)-2-methyl-N-(pyrrolidin-3-ylmethyl)benzofuran-3-carboxamide] had an IC50 of 1 to 20 µM. For `Cc1oc2ccc(OCc3ccccc3)cc2c1C(=O)N1CC[C@@H](N(C)C)C1` [Cpd 118, (R)-(5-(benzyloxy)-2-methylbenzofuran-3-yl)(3-(dimethylamino)pyrrolidin-1-yl)methanone] the value was more than 20 µM; for `Cc1oc2ccc(OCc3ccccc3)cc2c1C(=O)NC1CC2(CCNCC2)C1` [Cpd 180, 5-(benzyloxy)-2-methyl-N-(7-azaspiro[3.5]nonan-2-yl)benzofuran-3-carboxamide], less than 1 µM; for `Cc1oc2ccc(COc3ccccc3F)cc2c1C(=O)NC(C)(C)CO` [Cpd 319, 5-((2-fluorophenoxy)methyl)-N-(1-hydroxy-2-methylpropan-2-yl)-2-methylbenzofuran-3-carboxamide], 1 to 20 µM.

As for `Cc1oc2ccc(OCc3ccccc3)cc2c1C(=O)NCC(O)c1cccnc1` (stereo not drawn) [Cpd 174, 5-(benzyloxy)-N-(2-hydroxy-2-(pyridin-3-yl)ethyl)-2-methylbenzofuran-3-carboxamide], the IC50 was 1 to 20 µM. `Cc1oc2ccc(OCc3ccccc3)cc2c1C(=O)NC1CCNCC1F` (stereo not drawn) [Cpd 131, 5-(benzyloxy)-N-(3-fluoropiperidin-4-yl)-2-methylbenzofuran-3-carboxamide]: the IC50 is less than 1 µM.

For `Cc1oc2ccc(OCc3ccccc3)cc2c1C(=O)Nc1cccnc1` [Cpd 059, 5-(benzyloxy)-2-methyl-N-(pyridin-3-yl)benzofuran-3-carboxamide], the IC50 was less than 1 µM.

The compound `Cc1oc2ccc(OCc3ccccc3)c(F)c2c1C(=O)NC1CNCC1(F)F` (single isomer, unassigned) [Cpd 298-En 2, 5-(benzyloxy)-N-(4,4-difluoropyrrolidin-3-yl)-4-fluoro-2-methylbenzofuran-3-carboxamide] showed an IC50 of 1 to 20 µM. For `Cc1oc2ccc(OC(CN(C)C)c3ccccc3)cc2c1C(=O)N[C@@H](CO)C(N)=O` (single isomer, unassigned) [Cpd 347-En 1] the value was 1 to 20 µM. For `Cc1oc2ccc(OCc3ccccc3F)cc2c1C(=O)NC1(CO)CCNC1=O` (single isomer, unassigned) [Cpd 334-En 2] the value was less than 1 µM.

In the case of `Cc1oc2ccc(OCc3ccccc3CO)cc2c1C(=O)NC1CCN(C)CC1` [Cpd 192, 5-((2-(hydroxymethyl)benzyl)oxy)-2-methyl-N-(1-methylpiperidin-4-yl)benzofuran-3-carboxamide], the IC50 is 1 to 20 µM.

The compound `Cc1oc2ccc(OCc3ccccc3)cc2c1C(=O)NC1CCN(C)CC1` [Cpd 117, 5-(benzyloxy)-2-methyl-N-(1-methylpiperidin-4-yl)benzofuran-3-carboxamide] returned an IC50 of less than 1 µM. For `Cc1oc2ccc(OCc3ccccc3)cc2c1C(=O)N[C@@H]1C[C@H]2CCC[C@@H](C1)N2` [Cpd 184, 5-(benzyloxy)-N-((1R,3s,5S)-9-azabicyclo[3.3.1]nonan-3-yl)-2-methylbenzofuran-3-carboxamide] the value was less than 1 µM. In the case of `CN1CCC(NC(=O)c2c(C3CCCC3)oc3ccc(OCc4ccccc4)cc23)CC1` [Cpd 221, 5-(benzyloxy)-2-cyclopentyl-N-(1-methylpiperidin-4-yl)benzofuran-3-carboxamide] it was more than 20 µM.

In turn, `Cc1oc2ccc(OCc3ccc(C(F)(F)F)cc3)cc2c1C(=O)N[C@H]1CCNC1` [Cpd 202, (S)-2-methyl-N-(pyrrolidin-3-yl)-5-((4-(trifluoromethyl)benzyl)oxy)benzofuran-3-carboxamide] registered an IC50 of 1 to 20 µM. In the case of `Cc1oc2ccc(OCc3ccccc3)cc2c1C(=O)N[C@@H]1CCN(C(=O)OC(C)(C)C)[C@@H](C)C1` (racemic) [Cpd 251, tert-butyl trans-4-(5-(benzyloxy)-2-methylbenzofuran-3-carboxamido)-2-methylpiperidine-1-carboxylate] it was less than 1 µM. For `CN1CCC(NC(=O)c2coc3ccc(OCc4ccccc4)cc23)CC1` [Cpd 081, 5-(benzyloxy)-N-(1-methylpiperidin-4-yl)benzofuran-3-carboxamide] the value was 1 to 20 µM. In the case of `Cc1oc2ccc(COc3ccccc3F)cc2c1C(=O)NC(C)C(N)=O` (single isomer, unassigned) [Cpd 320-En 2] it was less than 1 µM.

In turn, `Cc1oc2ccc(OCc3ccccc3)cc2c1C(=O)NC1CCCNC1=O` (stereo not drawn) [Cpd 113, 5-(benzyloxy)-2-methyl-N-(2-oxopiperidin-3-yl)benzofuran-3-carboxamide] showed a 50% inhibitory concentration (IC50) of less than 1 µM.

In the case of `Cc1oc2ccc(OCc3ccccc3)cc2c1C(=O)N[C@H]1CCNC1=O` [Cpd 069, (S)-5-(benzyloxy)-2-methyl-N-(2-oxopyrrolidin-3-yl)benzofuran-3-carboxamide], the IC50 is less than 1 µM. In turn, `Cc1oc2ccc(OC(CO)c3ccccc3)cc2c1C(=O)NC1(CO)CCOCC1` (single isomer, unassigned) [Cpd 317-En 2, 5-(2-hydroxy-1-phenylethoxy)-N-(4-(hydroxymethyl)tetrahydro-2H-pyran-4-yl)-2-methylbenzofuran-3-carboxamide] showed an IC50 of 1 to 20 µM.
